Reference: PMC12376458, “Multi-omics analysis reveals ACOT1 as the key target of piperine in Piper Longum-mediated gastric cancer treatment” (Chinese Medicine, 2025)

Target: T1, ACOT1 (Acyl-CoA Thioesterase 1) (Homo sapiens, UniProt Q86TX2)
T1 construct: endogenous protein in NP-40 cell lysate, western blot read-out; mouse MFC used for xenograft
T1 sequence (Q86TX2 2-421): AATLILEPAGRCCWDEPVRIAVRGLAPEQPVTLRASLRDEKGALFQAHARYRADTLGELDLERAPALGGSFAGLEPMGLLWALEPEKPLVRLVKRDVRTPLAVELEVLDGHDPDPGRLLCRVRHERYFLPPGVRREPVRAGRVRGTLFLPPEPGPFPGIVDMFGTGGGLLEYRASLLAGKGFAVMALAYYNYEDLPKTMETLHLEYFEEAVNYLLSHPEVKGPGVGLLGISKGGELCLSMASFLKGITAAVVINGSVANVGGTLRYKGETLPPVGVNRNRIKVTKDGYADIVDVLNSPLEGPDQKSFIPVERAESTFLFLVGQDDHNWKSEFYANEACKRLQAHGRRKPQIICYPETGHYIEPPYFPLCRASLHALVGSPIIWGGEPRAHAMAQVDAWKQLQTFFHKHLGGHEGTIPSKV
Experiment: cellular thermal shift assay (CETSA) in cell lysate, western blot
Format: biochemical
Details: 60 μM piperine vs DMSO, 4 °C 5 h, then 35–60 °C for 3 min

O=C(/C=C/C=C/c1ccc2c(c1)OCO2)N1CCCCC1 [piperine]
cellular thermal shift assay (CETSA) in cell lysate, western blot: CETSA experimental results showed that piperine treatment enhanced the thermal stability of ACOT1
